The nature of data set [1]: Plasma concentration of Compound I (PK) in PET study Part B. Particulars: P2 scans, post-dose duration 10-51 hours. In kind it is in vivo, human. The procedure:
Dosing schemes include 5 mg (5Q; Part B4) once daily or QD, 30 mg QD (30Q; Part B3), 30 mg b.i.d. (30B; Part B2), and 60 mg b.i.d (60B; Part B1). […] Model 2 was supported over Model 1 in Pu, CN, and vS by Akaike information criterion (AIC; The smaller the AIC value the better the fit) (Akaike 1974) and F-test comparing residual sums of squares (RSS) of the two models (Table 1).

Data set [2] concerns patients with Alzheimer's disease. The data set is described as follows: Study 12936A, adjunctive treatment to donepezil in Alzheimer's disease. In kind it is in vivo, human. To be noted: 90 mg daily (3×30 mg) plus 10 mg/day of donepezil. From the text: In 2012, it was reported that a randomized, double blind, placebo controlled trial conducted in Europe, Canada and Australia met its primary endpoint in the treatment of AD.
An issue for that dose selection was to ensure that the maximum exposure level fell under the maximum exposure limit which had been established from non-clinical toxicology studies. Accordingly, a fixed dose of three times in the study was introduced.
(§1) The AD study cited in the Background section is referred to in this application as study 12936A. The schizophrenia study cited in the Background section is referred to in this application as study 12450A.

Data set [3] deals with T1, 5-HT6 receptor (Homo sapiens, UniProt P50406). The data set is described as follows: PET 5-HT6 receptor occupancy after multiple oral doses, [^11C]LuPET radioligand (Part B). In kind it is in vivo. The arrangement: from tissue; host or cells: brain of living healthy male subjects (putamen, caudate nucleus, ventral striatum), in vivo PET. The procedure: (§2) As the radioligand has not previously been dosed to humans it was initially evaluated in the human brain to identify an optimal method for quantification and validate the radioligand as a PET tracer (Part A).
T1 sequence (P50406 whole entry): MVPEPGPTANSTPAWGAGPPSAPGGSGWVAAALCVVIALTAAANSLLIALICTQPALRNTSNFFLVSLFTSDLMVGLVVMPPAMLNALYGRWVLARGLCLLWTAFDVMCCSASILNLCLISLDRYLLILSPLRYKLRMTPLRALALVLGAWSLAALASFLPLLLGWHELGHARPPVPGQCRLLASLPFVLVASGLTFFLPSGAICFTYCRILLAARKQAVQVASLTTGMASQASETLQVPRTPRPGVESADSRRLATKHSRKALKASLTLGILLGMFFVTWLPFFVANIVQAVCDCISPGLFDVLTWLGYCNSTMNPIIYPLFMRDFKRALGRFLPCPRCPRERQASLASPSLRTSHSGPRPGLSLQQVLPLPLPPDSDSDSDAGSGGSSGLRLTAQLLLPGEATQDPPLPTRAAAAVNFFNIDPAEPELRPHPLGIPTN
Eight healthy male subjects (Age: 30.6±7.7 years; range: 22-44 years) participated in Part A, and sixteen healthy male subjects (Age: 32.3±7.6 years; range: 21-44 years) participated in Part B of this study.
(§3) PET studies were performed on the GE Advance Tomograph (GE Medical Systems, Waukesha, Wis., USA). Subjects had one venous catheter for the radioligand injection, and one arterial catheter to obtain arterial blood samples for the determination of radioactivity in plasma. Then, subjects were positioned in the scanner with the head restrained with a custom-made thermoplastic mask to reduce the head motion during PET data acquisition. Then, a 10 minute attenuation scan was performed using a rotating ^68Ge source for attenuation correction. Dynamic PET acquisition was then performed in a three-dimensional mode for 90 min following an intravenous bolus injection of [^11C]LuPET. A total of 30 PET frames were obtained (4×15, 4×30, 3×60, 2×120, 5×240, and 12×300 seconds). […] Selected samples taken at 0, 5, 10, 30, 45, 60, and 90 min were analyzed by HPLC for the presence of the radioligand and its radioactive metabolites as described elsewhere (Hilton et al., 2000).
Volumes of interest (VOIs): Cortical VOIs were automatically defined using Freesurfer software and combined into standard regions including: frontal (Fr), temporal (Tp), parietal (Pa), and occipital (Oc) cortices, fusiform gyms (Fs), cingulate (Cg), and insula (In). Subcortical regions were defined with FIRST software (Patenaude et al., 2011) and manually adjusted on individual MRIs. Subcortical regions included putamen (Pu), caudate nucleus (CN), ventral striatum (vS), globus pallidus (GP), thalamus (Th), hippocampus (Hp), and amygdala (Am). VOIs were transferred from MRI to PET spaces following MRI-to-PET coregistration parameters given by SPMS (Ashbumer J, Friston 2003; Macs et al., 1997) to obtain time-activity curves (TACs) of regions. A total of 25 regions per scan were employed for methodological evaluations (Part A) while occupancy calculation was limited to Pu, CN, and vS (Part B).
Derivation of PET outcome variables: Primary PET outcome variables are total distribution volume, VT and binding potential, BPND (=fND·Bavail/KD, where fND refers to the fraction of non-displaceable compartment, Bavail stands for the density of available (unoccupied) 5-HT6 receptors, and KD stands for the dissociation constant; Innis et al., 2007).
A set of standard plasma input methods were employed to identify the optimal method for derivation of regional distribution volume (VT) for [^11C]LuPET including, a one tissue compartmental model (OTCM) with three parameters (K1, and k2′; See Koeppe et al., 1991 for the definitions, and v0, tissue vascular volume), two tissue compartmental models with five parameters (K1, k2, k3, k4, and v0; See Innis et al., 2007 for the definitions), without and with constraining the K1-k2 ratio (non-displaceable distribution volume, VND (Abi-Dargham et al., 1994) to the cerebellum estimate (TTCM-UC and TTCM-C, respectively), and the plasma reference graphical analysis (PRGA; Logan et al., 1990). In TTCM-UC and TTCM-C, BPND was given as the k3-k4 ratio.
In addition, tissue reference methods, namely the multilinear reference tissue method with 2 parameters (MRTM2; Ichise et al., 2002) and reference tissue graphical analysis (RTGA; Logan et al., 1996) were applied.
Akaike information criteria (AIC; Akaike 1974; Burnham and Anderson 2004) was used to examine goodness of fit for compartmental models and for the examination of occupancy-PK relationships using Equation 3. Results

The target in data set [4] is T1, 5-HT6 receptor. The data set is described as follows: PK/PD Emax model of 5-HT6 occupancy fitted to PET data. In kind it is in vivo. Set-up: from tissue; host or cells: brain of living healthy male subjects (putamen, caudate nucleus, ventral striatum), in vivo PET. Particulars: caudate nucleus region; non-linear mixed effect modelling. As to the method:
In total three PET scans were performed per subject, the first at baseline, the second around tmax on last day of dosing and the last in the interval 10-51 hours post dose on the last day of dosing.
In order to allow for estimation of the inter-subject variability in the occupancy, non-linear mixed effect modelling was performed where the inter-subject variability was modelled as an exponential term on EC50.

The test system of data set [5] is patients with schizophrenia. Kind of data set: Study 12450A, adjunctive treatment to risperidone in schizophrenia. In kind it is in vivo, human. To be noted: 120 mg/day BID. As to the method: Overall improvement in schizophrenia symptoms was assessed by using the Positive and Negative Syndrome Scale (PANSS) total score.
as §1

The nature of data set [6]: Phase I PK study in the elderly and AD study 12936A pharmacokinetics. Particulars: for half-life: human, plasma, read-out: elimination half life (converted). In kind it is in vivo, human. The procedure:
In total, the dataset used in the popPK model consisted of 265 patients. The doses administered, single or multiple, were in the range of 9.0-300 mg.

The nature of data set [7]: Evaluation of [^11C]LuPET as PET tracer in the human brain. In kind it is in vivo. As to the method:
as §2
as §3, with “2000). […]” for “2000).”

In data set [8] the target is T1, 5-HT6 receptor. The data set is described as follows: Displacement of [^11C]LuPET binding by olanzapine, PET (Part A). Particulars: one dose of 10 mg, scan 5 hours after dose; across brain regions.
From the text: In Part A, baseline scans were repeated on the same day (n=1) or separate days (n=7) ranging from 1 to 18 days apart to test reproducibility of PET outcome variables.
[formula] where superscripts indicate BPND of baseline (B) and post-dose (D), respectively.
The mark [9] stands for this setting: Caudate nucleus (CN), PRGA, 3H + P2 pooled.
Where [10] appears, read: Caudate nucleus (CN), PRGA, 3H scans.
[11] abbreviates: Caudate nucleus (CN), PRGA, P2 scans.
[12] abbreviates: Caudate nucleus (CN), RTGA, 3H + P2 pooled.
The mark [13] stands for this setting: Caudate nucleus (CN), RTGA, 3H scans.
Setting [14] is: Caudate nucleus (CN), RTGA, P2 scans.
Where [15] appears, read: Putamen (Pu), PRGA, 3H + P2 pooled.
[16] abbreviates: Ventral striatum (vS), PRGA, 3H + P2 pooled.
Setting [17] is: Ventral striatum (vS), PRGA, 3H scans.
Where [18] appears, read: Ventral striatum (vS), PRGA, P2 scans.

These results are taken from patent publication US10660878B2, “Methods of treating dementia and pharmaceutical compositions thereof” (H. Lundbeck A/S, priority 2012, dated 2020).

Entries after “also recorded” stand apart in the source; their conditions may differ. Read-outs that look alike come from different tables or passages of the source. Where only a bound is given, the exact number is not on record here.

What is called half-life is the time needed for the level to fall by half in the phase considered. `Fc1ccc2c(CCNCc3cccc(OCC(F)(F)C(F)F)c3)c[nH]c2c1` [Compound I, N-[2-(6-fluoro-1H-indol-3-yl)ethyl]-3-(2,2,3,3-tetrafluoropropoxy)benzylamine]: the “PK range (plasma concentration)” value in data set [1] is 0.54 to 204 ng/mL. Moreover, in data set [2], the “secondary endpoints (global impression, daily living activities) vs donepezil treated patients” value is “positive results”. In addition, in data set [2] (278 patients), the “cognitive function (ADAS-cog) vs placebo plus donepezil” value was “significantly improved”. Besides, the receptor occupancy at 30 mg is above 85% in data set [3] (30 mg BID, at Cmax) and around 80% in data set [3] (30 mg QD, at Cmax). The compound also had a receptor occupancy at 60 mg in data set [3] (60 mg BID, at Cmax) above 90%. For the same compound, the “PK values predicted to generate 80% occupancy” value in data set [3] (CN and vS by PRGA) is “about 120 ng/mL”; in data set [3] (CN by RTGA), “about 100 ng/mL”; in data set [3] (Pu by PRGA), “about 50 ng/mL”. Moreover, the “80% RO (PK predicted to exert 80% occupancy)” value in data set [3] (setting [9]) is reported as 51.1 ng/mL; in data set [3] (setting [10]) it was 50.1 ng/mL; in data set [3] (setting [11]), 48.0 ng/mL; in data set [3] (setting [12]) it was 108.4 ng/mL; in data set [3] (setting [13]), 102.8 ng/mL; in data set [3] (setting [14]) it was 101.5 ng/mL. The “80% RO (PK predicted to exert 80% occupancy)” value in data set [3] (setting [15]) is listed as 131.7 ng/mL; in data set [3] (Putamen (Pu), PRGA, 3H scans), 137.8 ng/mL; in data set [3] (Putamen (Pu), PRGA, P2 scans), 116.7 ng/mL; in data set [3] (setting [16]), 121.0 ng/mL; in data set [3] (setting [17]), 66.5 ng/mL; in data set [3] (setting [18]), 133.5 ng/mL. The Omax is given as 91.3% in data set [3] (setting [9]); 90.3% in data set [3] (setting [10]); 93.9% in data set [3] (setting [11]); 85.7% in data set [3] (setting [12]); 85.2% in data set [3] (setting [13]); 87.1% in data set [3] (setting [14]). Besides, the Omax was 83.2% in data set [3] (setting [15]); 82.8% in data set [3] (Putamen (Pu), PRGA, 3H scans); 83.8% in data set [3] (Putamen (Pu), PRGA, P2 scans); 77.3% in data set [3] (Putamen (Pu), RTGA, 3H + P2 pooled); 7.5% in data set [3] (Putamen (Pu), RTGA, 3H scans); 76.6% in data set [3] (Putamen (Pu), RTGA, P2 scans). In addition, the Omax in data set [3] (setting [16]) is on record as 86.0%; in data set [3] (setting [17]), 85.5%; in data set [3] (setting [18]) it was 89.7%; in data set [3] (Ventral striatum (vS), RTGA, 3H + P2 pooled), 76.5%; in data set [3] (Ventral striatum (vS), RTGA, 3H scans) it was 78.2%; in data set [3] (Ventral striatum (vS), RTGA, P2 scans), 72.1%. For the same compound, in data set [3] (oral administration, overall study estimate based on Pu and CN), the Omax entry is “about 90%”. In addition, the “5-HT6 receptor occupancy 24 hours post dose” value in data set [3] (after multiple dosages, 24 hours post dose vs Cmax) was “only decreased slightly; also recorded: maintained”. The “Emax (maximal occupancy)” value in data set [4] is reported as 91%. The “PANSS total score vs placebo” value in data set [5] is recorded as “did not offer any treatment advantage over placebo”. Also, the “overall neurocognitive performance (BACS composite Z-score, PANSS cognitive subscale scores) vs placebo” value in data set [5] was “did not appear to be any treatment advantage over placebo”. Moreover, the clearance entry in data set [6] (elderly compared to younger subjects) is “reduced”. Besides, the results for the half-life in data set [6] (elderly population) and in data set [6] (young healthy subjects) were around 19 h and around 12 h, respectively.

`[11CH3]N1CCN(c2cccc3cc(S(=O)(=O)c4ccccc4)cnc23)CC1` [[^11C]LuPET]: the “k2 (brain-to-blood clearance rate constant)” value in data set [7] (cerebellum (Cb), mean across baseline scans, TTCM-UC) came to 0.076 min⁻¹. For the same compound, the “distribution volume VT” value in data set [7] (striatum target regions) was around 10 mL/mL.

Turning to `Cc1cc2c(s1)Nc1ccccc1N=C2N1CCN(C)CC1` [olanzapine], in data set [8], the “displacement of binding of [^11C]LuPET” value is “about 80%”.
